Test results from patent US5770617A, “Terbenzimidazoles useful as antifungal agents” (Rutgers, The State University of New Jersey, priority 1997, dated 1998).

Assays:
[1] = molecular target: T1, Aspergillus topoisomerase I (Aspergillus nidulans, UniProt Q5BGS7); assay: Covalent transfer of 32P radioactivity from DNA to topoisomerase I (phosphate-transfer); type: biochemical; settings: for phosphate transfer to 105 kDa Aspergillus topoisomerase I: Ho33342 1 mM
T1 construct: about 105 kDa by phosphate transfer
T1 sequence (Q5BGS7 1-871): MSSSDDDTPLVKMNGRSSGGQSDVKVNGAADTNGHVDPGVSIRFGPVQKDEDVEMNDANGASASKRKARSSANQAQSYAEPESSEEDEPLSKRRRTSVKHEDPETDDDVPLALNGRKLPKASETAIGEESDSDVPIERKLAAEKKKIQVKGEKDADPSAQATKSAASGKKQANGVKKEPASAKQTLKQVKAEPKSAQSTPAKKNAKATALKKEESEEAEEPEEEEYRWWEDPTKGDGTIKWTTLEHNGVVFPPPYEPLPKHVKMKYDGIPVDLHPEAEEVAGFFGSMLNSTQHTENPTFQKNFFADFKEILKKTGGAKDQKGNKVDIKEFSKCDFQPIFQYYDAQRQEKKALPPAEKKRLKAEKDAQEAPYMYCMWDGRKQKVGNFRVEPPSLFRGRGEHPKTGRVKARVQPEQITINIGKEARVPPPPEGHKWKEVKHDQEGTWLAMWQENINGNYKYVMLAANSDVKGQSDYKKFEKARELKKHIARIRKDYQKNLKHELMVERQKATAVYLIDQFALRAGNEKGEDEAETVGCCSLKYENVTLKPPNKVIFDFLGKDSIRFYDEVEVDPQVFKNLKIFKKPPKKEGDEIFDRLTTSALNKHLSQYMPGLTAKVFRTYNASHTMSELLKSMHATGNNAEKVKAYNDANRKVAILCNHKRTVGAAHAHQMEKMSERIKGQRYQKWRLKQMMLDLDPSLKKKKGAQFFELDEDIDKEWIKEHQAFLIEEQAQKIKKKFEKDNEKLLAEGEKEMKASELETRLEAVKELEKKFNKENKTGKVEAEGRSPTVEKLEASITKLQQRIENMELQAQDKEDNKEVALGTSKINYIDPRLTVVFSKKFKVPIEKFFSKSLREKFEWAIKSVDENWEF
Description: This phosphate-transfer method was a modification of the procedure described previously by T. C. Rowe et al., J. Biol. Chem., 259, 9177 (1984). Briefly, a 100-μl reaction mixture containing 10 mM Tris-HCl, pH 7.5, 1 mM MgCl2, 0.5 mM dithiothreitol, 30 μg/ml of bovine serum albumin, drug (camptothecin or Hoechst 33342) at an indicated concentration, 50 ng of YEpG DNA labeled with ^32 PdATP by the random primer method (Random Primed Labeling Kit, Boehringer Mannheim), and 300 units of human or Aspergillus topoisomerase I, was incubated at 37° C. for 10 minutes. The reactions were terminated by adding NaOH to 0.18M and EDTA to 2.5 mM. After neutralizing the reaction with a precalibrated amount of Tris-HCl, 9 μl of 0.1M CaCl2 and 7.5 μl of 20% SDS were added, and the volume was adjusted to 300 μl with H2 O.
Five units of Bal31 nuclease (New England, BioLabs) were added, and the sample was digested for 1 hour at 25° C. The reaction was terminated by extraction with 1 volume of phenol. The phenol phase was saved and back-extracted once with an equal volume of 10 mM Tris-HCl, pH 8.0, 1 mM EDTA. The protein-oligonucleotide complexes were then precipitated from the phenol phase by adding 10 volumes of ice-cold acetone and placing on ice for 10 minutes. The pellet was dissolved in SDS sample buffer and analyzed by SDS-PAGE. Gel drying and autoradiography were done as described (Hsiang et al., J. Biol. Chem., 260, 14873 (1985)).

[2] = system: CPT-K5 (camptothecin-resistant variant of RPMI 8402); assay: MTT cytotoxicity assay, CPT-K5; type: cell-based, human
Description: The cytotoxicity was determined using the as MTT-microtiter plate tetrazolinium cytotoxicity assay (MTA) following the procedures of F. Denizot et al., J. Immunol. Methods, 89, 271 (1986); J. Carmichael et al., Cancer Res, 47, 936 (1987) and T. J. Mosmann et al., Immunol. Methods, 65, 55 (1983). The human lymphoblast RPMI 8402 and its camptothecin-resistant variant cell line, CPT-K5 were provided by Dr. Toshiwo Andoh (Aichi Cancer Center Research Institute, Nagoya, Japan). See, for example, T. Andoh et al., Adv. Pharmacol., 29B, 93 (1994). The cytotoxicity assay was performed using 96-well microtiter plates. Cells were grown in suspension at 37 ° C. in 5% CO2 and maintained by regular passage in RPMI medium supplemented with 10% heat inactivated fetal bovine serum, L-glutamine (2 mM), penicillin (100 U/ml), and streptomycin (0.1 mg/ml). For determination of IC50, cells were exposed continuously with varying concentrations of drug concentrations and MTT assays were performed at the end of the fourth day.

[3] = system: KBV-1 cells (multidrug-resistant variant, overexpress MDR1); settings: cited from earlier work
[4] = system: yeast cells expressing yeast topoisomerase I; assay: Yeast cytotoxicity assay, yeast topoisomerase I; type: cell-based, S. cerevisiae
Source text: The topoisomerase I-specific in vivo cytotoxicity assay was adapted from A. M. Knab et al., J. Biol. Chem., 268, 22322 (1993). In this system, various topoisomerase I genes or cDNAs cloned into the single-copy yeast plasmid vector (YCpGAL1; Knab et al., cited above) are expressed under the control of the GAL1 promoter in the JN2-134 strain of S. cerevisiae (MAT, rad52::Leu2, trp1, ade2-1, his7, ura3-52, ise1, top1-1, and leu2; M. A. Bjornsti et al., Cancer Res., 49, 6318 (1989)). The topoisomerase I gene or cDNA constructs in the vector are, respectively, the wild-type yeast topoisomerase I gene (YCpGAL-ScTOP1; need cite (1989)), a nonfunctional topoisomerase I gene where the active site tyrosine-727 is mutated to phenylalanine (YCPGAL1-Sctop1Y727; A. M. Knab et al., J. Biol. Chem., 268, 22322 (1993)), and the wild-type human topoisomerase I cDNA (YCp-GAL-hTOP1; M. A. Bjornsti et al., Cancer Res., 49, 6318 (1989)).
To qualitatively test the cytotoxicity and the topoisomerase I specificity of the drugs, yeast cells containing the specified plasmid were grown in dropout medium supplemented with uracil, 2% galactose, and the drug being tested.

[5] = system: CPT-K5 (camptothecin-resistant variant of RPMI 8402); settings: CPT-K5 versus RPMI 8402; reported by A. Y. Chen et al. 1993; cited from earlier work

| SMILES | phosphate transfer to 105 kDa Aspergillus topoisomerase I [1] | phosphate transfer at higher concentrations ([1]; higher concentrations of Ho33342) | effect against camptothecin-resistant CPT-K5 cells, in words [2] | fold less cytotoxic to KB V-1 cells than to KB 3-1 ([3]; background, previously reported) | difference of IC50 for KB 3-1 as compared to KB V-1 cells ([3]; reported by A. Y. Chen et al. 1994) | cytotoxicity to yeast cells expressing functional yeast topoisomerase I [4] | resistance of yeast cells expressing yeast topoisomerase I relative to yeast cells expressing human topoisomerase I [4] | relative resistance (ratio of IC50 of resistant versus drug sensitive cell line) [5] |
| --- | --- | --- | --- | --- | --- | --- | --- | --- |
| CCOc1ccc(-c2nc3cc(-c4nc5cc(N6CCN(C)CC6)ccc5[nH]4)ccc3[nH]2)cc1 [Hoechst 33342, 2'-(4-ethoxyphenyl)-5-(4-methyl-1-piperazinyl)-2,5'-bi-1H-benzimidazole] | stimulated the phosphate transfer | progressively inhibited | effective | approximately 130 fold | approximately two-orders of magnitude | – | – | – |
| CC[C@@]1(O)C(=O)OCc2c1cc1n(c2=O)Cc2cc3ccccc3nc2-1 [camptothecin] | stimulated the phosphate transfer | – | – | – | – | camptothecin-sensitive | at least ten times more resistant | 2,500 fold |
| c1ccc(-c2ccc3[nH]c(-c4ccc5[nH]c(-c6ccc7[nH]cnc7c6)nc5c4)nc3c2)cc1 [Compound 13, 5-Phenyl-2-[2'(benzimidazol-5"-yl)benzimidazol-5'-yl]benzimidazole] | – | – | effective | – | – | – | – | – |
